According to ChEMBL document CHEMBL1152118, “Synthesis and pharmacological profile of two novel heterocyclic chromanols, CP-80,798 and CP-85,958, as potent LTD4 receptor antagonists” (Bioorg Med Chem Lett, 1995):

Legend:
[1] = target: T1, Cysteinyl leukotriene receptor 1 (Cavia porcellus, UniProt Q2NNR5); test: Inhibition of [3H]LTD4 binding to LTD4 receptor in guinea pig lung membranes; type: cell membranes, Membrane
T1 sequence (Q2NNR5 whole entry): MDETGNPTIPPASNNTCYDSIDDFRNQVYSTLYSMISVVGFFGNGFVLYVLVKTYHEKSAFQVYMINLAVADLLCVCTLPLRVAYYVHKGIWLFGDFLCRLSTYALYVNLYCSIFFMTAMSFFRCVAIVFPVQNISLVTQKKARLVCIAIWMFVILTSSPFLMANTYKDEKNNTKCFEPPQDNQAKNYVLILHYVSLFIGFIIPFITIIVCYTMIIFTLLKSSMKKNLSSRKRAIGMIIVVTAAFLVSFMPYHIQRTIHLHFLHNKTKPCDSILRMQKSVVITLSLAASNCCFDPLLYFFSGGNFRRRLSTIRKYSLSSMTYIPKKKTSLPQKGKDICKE

[2] = tested on: Cavia porcellus; test: Inhibitory activity against LTD4 challenged pulmonary function test by oral administration (2 hr preantigen); type: functional
[3] = tested on: Cavia porcellus; test: Dose required to block the airway obstruction induced by aerosolized antigen by oral administration; type: functional
[4] = target: T2, Polyunsaturated fatty acid 5-lipoxygenase (Rattus norvegicus, UniProt P12527); test: Inhibition of 5-Lipoxygenase (5-LO) in rat basophilic leukemia cells; type: cell-based, RBL-1
T2 sequence (P12527 whole entry): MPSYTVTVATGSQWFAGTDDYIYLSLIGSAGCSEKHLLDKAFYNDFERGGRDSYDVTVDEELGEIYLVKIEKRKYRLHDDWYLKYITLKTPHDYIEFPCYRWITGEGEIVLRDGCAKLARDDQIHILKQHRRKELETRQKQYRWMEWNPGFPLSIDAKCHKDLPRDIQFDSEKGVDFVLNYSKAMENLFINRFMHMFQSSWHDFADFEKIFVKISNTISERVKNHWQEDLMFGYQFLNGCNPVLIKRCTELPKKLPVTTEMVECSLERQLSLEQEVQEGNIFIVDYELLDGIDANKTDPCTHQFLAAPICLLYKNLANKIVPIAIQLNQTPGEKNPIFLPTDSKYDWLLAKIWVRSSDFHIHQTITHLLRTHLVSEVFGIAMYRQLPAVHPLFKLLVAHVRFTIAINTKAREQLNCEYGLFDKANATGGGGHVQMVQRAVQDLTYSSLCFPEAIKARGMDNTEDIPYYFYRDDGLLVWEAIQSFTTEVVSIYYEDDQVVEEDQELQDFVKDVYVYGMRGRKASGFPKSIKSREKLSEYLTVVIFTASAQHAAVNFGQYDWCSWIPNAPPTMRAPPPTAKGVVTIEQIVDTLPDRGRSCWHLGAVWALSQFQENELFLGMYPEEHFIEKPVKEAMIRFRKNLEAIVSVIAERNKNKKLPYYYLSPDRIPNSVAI

[5] = tested on: Cavia porcellus; test: Inhibitory activity against LTD4 challenged pulmonary function test by oral administration; type: functional

| SMILES | Ki [1] [µM] | IC50 [4] [µM] | ED50 [2] [mg/kg] | ED50 [3] [mg/kg] | ED50 [5] [mg/kg] |
| --- | --- | --- | --- | --- | --- |
| O=C(O)c1cccc(C[C@@H]2COc3ccc(OCc4nc5cc(F)ccc5s4)cc3[C@@H]2O)c1 | 24 | 8.1 | 0.43 | 10.8 | 0.49 |
| CCCCCC(O)c1cccc(OCc2ccc3ccccc3n2)c1 (stereo not drawn) [REV-5901] | 8 |  |  |  |  |
| CCCCC1CCc2ccc(OCc3ccc4ccccc4n3)cc2C1O (stereo not drawn) | 6.8 |  |  |  |  |

Stronger by Ki [1], values ahead:

| Ki [1] [µM] | IC50 [4] [µM] | SMILES | ED50 [2] [mg/kg] | ED50 [3] [mg/kg] | ED50 [5] [mg/kg] |
| --- | --- | --- | --- | --- | --- |
| 1.5 |  | O[C@@H]1c2cc(OCc3ccc4ccccc4n3)ccc2CC[C@H]1Cc1ccccc1 |  |  |  |
| 0.65 | 1.9 | O[C@@H]1c2cc(OCc3ccc4ccccc4n3)ccc2OC[C@@H]1Cc1cccnc1 | 20 | 16 | 3 |
